Experimental data reported in patent US10849336B2, “Cocoa-based food products” (IP Science Limited, priority 2011, dated 2020).
Where “and” joins values, the source holds several entries; their conditions need not be identical. Equal values may be shown once.

What was measured:
cholesterol = details: cited from earlier work
CHD patients = assay: Clinical trial in CHD patients, daily lycopene, control chocolate or L-chocolate; assay type: in vivo, human
Protocol: Commercially available dark chocolate (Green & Black's Dark Chocolate; 85% cocoa) was melted at 70° C. The melted chocolate was mixed with tomato oleoresin, containing 15% of lycopene (Lyc-O-Mato), in the ratio of 1.57 mg of oleoresin to 1 g of the chocolate. The mixture was blended for 10 minutes and then divided into daily […] 30 g portions and cooled down to the room temperature.
Each […] 30 g chocolate portion contained 47.1 mg of tomato oleoresin or about 7 mg of lycopene.
The melting and mixing procedures were performed as described above using the same commercially available dark chocolate, but instead of tomato oleoresin, sunflower oil (Floral™) was used.
47.1 mg of tomato oleoresin was pre-dissolved in ethanol and mixed with Whey Protein as described in Richelle et al (2002) J Nutr 132 404-408, WO01/091588 and US2002/01072992. Then the mixture was placed into gelatine capsules.
18 male CHD patients, age 47-69, were recruited for this study.
Main inclusion criteria were: • elevated total serum cholesterol above 200 mg/dL and/or triglycerides above 150 mg/dL, • all patients were naive for any lipid-lowering medications, • stable clinical conditions and regimen of medications was t the last 3 months.
Secondary inclusion criteria were: • positive blood markers on inflammatory oxidative damage, IOD, >20-30 μM MDA • positive blood on an antibody inflammatory marker, Px-IgG>0.250-0.300 U/ml
All patients were randomised and divided into three equal groups of 6 patients each. Two groups receiving chocolate were blinded; the group receiving lycopene preparation along was open labelled. The period of the trial was 4 weeks.

[1] = Baseline, group mean (unlabelled last line)
[2] = Week 1, group mean (unlabelled last line)
[3] = Week 2, group mean (unlabelled last line)
[4] = Week 3, group mean (unlabelled last line)

In the case of `CC(C)=CCC/C(C)=C/C=C/C(C)=C/C=C/C(C)=C/C=C/C=C(C)/C=C/C=C(C)/C=C/C=C(\C)CCC=C(C)C` [Lycopene], the cholesterol-lowering effect (cholesterol; 13 clinical studies, daily doses 25 mg of lycopene or above) is listed as 7.55 ± 6.15 mg/dL, the “effect on cholesterol or other blood lipids” value (cholesterol; daily consumption of 6-10 mg) is listed as “no effect on cholesterol or other blood lipids” and the ALT (CHD patients; [1]) is listed as 29.2 U/L. It also gave an AST (CHD patients; [1]) of 37.3 U/L, a GL (CHD patients; [1]) of 5.4 mmol/L and an HDL (CHD patients; [1]) of 40.5 mg/dL. The IOD (CHD patients; [1]) was 95 μM MDA, the LDL (CHD patients; [1]) was 157 mg/dL and the Px-IgG (CHD patients; [1]) was 0.762 U/ml. The TC (CHD patients; [1]) was 222 mg/dL, the TG (CHD patients; [1]) was 149 mg/dL and the ALT (CHD patients; Baseline, individual patient) was 35 U/L and 29 U/L and 26 U/L and 25 U/L and 36 U/L and 24 U/L. The AST (CHD patients; Baseline, individual patient) was 27 U/L and 49 U/L and 25 U/L and 44 U/L and 45 U/L and 34 U/L, the GL (CHD patients; Baseline, individual patient) was 4.4 mmol/L and 5.9 mmol/L and 6.1 mmol/L and 6.5 mmol/L and 5.6 mmol/L and 3.8 mmol/L and the HDL (CHD patients; Baseline, individual patient) was 44 mg/dL and 37 mg/dL and 40 mg/dL and 39 mg/dL and 42 mg/dL and 41 mg/dL. The IOD (CHD patients; Baseline, individual patient) was 95 μM MDA and 83 μM MDA and 49 μM MDA and 101 μM MDA and 162 μM MDA and 79 μM MDA, the LDL (CHD patients; Baseline, individual patient) was 161 mg/dL and 186 mg/dL and 147 mg/dL and 153 mg/dL and 159 mg/dL and 135 mg/dL and the Px-IgG (CHD patients; Baseline, individual patient) was 0.803 U/ml and 0.751 U/ml and 0.743 U/ml and 0.698 U/ml and 0.811 U/ml. For the same compound, the TC (CHD patients; Baseline, individual patient) was 219 mg/dL and 243 mg/dL and 210 mg/dL and 225 mg/dL and 231 mg/dL and 204 mg/dL, the TG (CHD patients; Baseline, individual patient) was 126 mg/dL and 165 mg/dL and 157 mg/dL and 161 mg/dL and 150 mg/dL and 134 mg/dL and the ALT (CHD patients; [2]) was 31.5 U/L. The AST (CHD patients; [2]) was 39.7 U/L, the GL (CHD patients; [2]) was 5.3 mmol/L and the HDL (CHD patients; [2]) was 40.3 mg/dL. The IOD (CHD patients; [2]) was 96 μM MDA, the LDL (CHD patients; [2]) was 157 mg/dL and the Px-IgG (CHD patients; [2]) was 0.823 U/ml. For the same compound, the TC (CHD patients; [2]) was 221 mg/dL, the TG (CHD patients; [2]) was 150 mg/dL and the ALT (CHD patients; Week 1, individual patient) was 31 U/L and 33 U/L (2×) and 29 U/L (2×) and 34 U/L. For the same compound, the AST (CHD patients; Week 1, individual patient) was 47 U/L and 46 U/L and 36 U/L and 31 U/L and 44 U/L and 34 U/L, the GL (CHD patients; Week 1, individual patient) was 6.4 mmol/L and 5.7 mmol/L and 4.9 mmol/L and 3.6 mmol/L and 5.1 mmol/L and 6.1 mmol/L and the HDL (CHD patients; Week 1, individual patient) was 39 mg/dL and 42 mg/dL and 40 mg/dL (2×) and 43 mg/dL and 38 mg/dL. For the same compound, the IOD (CHD patients; Week 1, individual patient) was 99 μM MDA and 158 μM MDA and 85 μM MDA and 94 μM MDA and 81 μM MDA and 57 μM MDA, the LDL (CHD patients; Week 1, individual patient) was 153 mg/dL and 160 mg/dL (2×) and 134 mg/dL and 185 mg/dL and 149 mg/dL and the Px-IgG (CHD patients; Week 1, individual patient) was 0.823 U/ml and 0.746 U/ml and 0.809 U/ml and 0.867 U/ml and 0.851 U/ml and 0.839 U/ml. For the same compound, the TC (CHD patients; Week 1, individual patient) was 224 mg/dL and 231 mg/dL and 205 mg/dL and 217 mg/dL and 241 mg/dL and 209 mg/dL, the TG (CHD patients; Week 1, individual patient) was 160 mg/dL and 152 mg/dL and 137 mg/dL and 130 mg/dL and 164 mg/dL and 159 mg/dL and the ALT (CHD patients; [3]) was 30.8 U/L. For the same compound, the AST (CHD patients; [3]) was 37.5 U/L, the GL (CHD patients; [3]) was 5.2 mmol/L and the HDL (CHD patients; [3]) was 40.3 mg/dL. It also gave an IOD (CHD patients; [3]) of 92 μM MDA, an LDL (CHD patients; [3]) of 156 mg/dL and a Px-IgG (CHD patients; [3]) of 0.818 U/ml. For the same compound, the TC (CHD patients; [3]) was 221 mg/dL, the TG (CHD patients; [3]) was 150 mg/dL and the ALT (CHD patients; Week 2, individual patient) was 29 U/L and 31 U/L (2×) and 28 U/L and 32 U/L and 34 U/L. The AST (CHD patients; Week 2, individual patient) was 43 U/L and 42 U/L and 31 U/L and 38 U/L and 41 U/L and 30 U/L, the GL (CHD patients; Week 2, individual patient) was 6.6 mmol/L and 5.2 mmol/L and 5.4 mmol/L and 4.1 mmol/L and 3.9 mmol/L and 6 mmol/L and the HDL (CHD patients; Week 2, individual patient) was 39 mg/dL (2×) and 41 mg/dL (2×) and 40 mg/dL and 42 mg/dL. The IOD (CHD patients; Week 2, individual patient) was 95 μM MDA and 139 μM MDA and 84 μM MDA and 91 μM MDA and 75 μM MDA and 68 μM MDA, the LDL (CHD patients; Week 2, individual patient) was 152 mg/dL and 158 mg/dL and 133 mg/dL and 159 mg/dL and 183 mg/dL and 150 mg/dL and the Px-IgG (CHD patients; Week 2, individual patient) was 0.812 U/ml and 0.809 U/ml and 0.815 U/ml and 0.844 U/ml and 0.830 U/ml and 0.799 U/ml. The TC (CHD patients; Week 2, individual patient) was 223 mg/dL and 230 mg/dL and 208 mg/dL (2×) and 216 mg/dL and 239 mg/dL, the TG (CHD patients; Week 2, individual patient) was 159 mg/dL and 151 mg/dL and 138 mg/dL and 132 mg/dL and 162 mg/dL and 158 mg/dL and the ALT (CHD patients; [4]) was 29.3 U/L. The AST (CHD patients; [4]) was 37.8 U/L, the GL (CHD patients; [4]) was 5.22 mmol/L and the HDL (CHD patients; [4]) was 40.2 mg/dL. The IOD (CHD patients; [4]) was 94 μM MDA, the LDL (CHD patients; [4]) was 154 mg/dL and the Px-IgG (CHD patients; [4]) was 0.806 U/ml. The TC (CHD patients; [4]) was 219 mg/dL, the TG (CHD patients; [4]) was 149 mg/dL and the ALT (CHD patients; Week 3, individual patient) was 32 U/L and 29 U/L and 25 U/L and 31 U/L (2×) and 28 U/L. The AST (CHD patients; Week 3, individual patient) was 42 U/L (2×) and 39 U/L and 35 U/L and 36 U/L and 33 U/L, the GL (CHD patients; Week 3, individual patient) was 6.2 mmol/L and 4.8 mmol/L and 5.1 mmol/L and 5 mmol/L and 4.4 mmol/L and 5.8 mmol/L and the HDL (CHD patients; Week 3, individual patient) was 39 mg/dL and 42 mg/dL and 40 mg/dL and 41 mg/dL (2×) and 38 mg/dL. The IOD (CHD patients; Week 3, individual patient) was 94 μM MDA and 136 μM MDA and 85 μM MDA and 93 μM MDA and 76 μM MDA and 81 μM MDA, the LDL (CHD patients; Week 3, individual patient) was 151 mg/dL and 157 mg/dL and 132 mg/dL and 155 mg/dL and 179 mg/dL and 152 mg/dL and the Px-IgG (CHD patients; Week 3, individual patient) was 0.834 U/ml and 0.781 U/ml and 0.84 U/ml and 0.795 U/ml and 0.809 U/ml and 0.774 U/ml. For the same compound, the TC (CHD patients; Week 3, individual patient) was 221 mg/dL and 227 mg/dL and 210 mg/dL and 214 mg/dL and 232 mg/dL and 211 mg/dL, the TG (CHD patients; Week 3, individual patient) was 155 mg/dL and 149 mg/dL and 135 mg/dL and 142 mg/dL and 161 mg/dL and 154 mg/dL and the “changes in levels of elevated cholesterol, triglycerides and markers of oxidative damage or inflammation” value (CHD patients; after two weeks of administration, 7 mg lycopene or 30 g control bar) was “no changes”.
